Experimental data taken from patent US11963960B2 (Flash Therapeutics, LLC, priority 2020, dated 2024).

molecular target: N-terminally GST-tagged HCK (75-526) (Homo sapiens (Human), UniProt P08631); experiment: HCK Kinase Assay (ProFluor Src-Family Kinase Assay); format: biochemical; conditions: 50 μM ATP; read-out: HCK IC50
Summary of the method: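 ProFluor Src-family format: after the kinase reaction, protease solution was added for 60 min at room temperature (22-25° C), then stabilizer.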

Chain of N-terminally GST-tagged HCK (75-526) (P08631 75-526): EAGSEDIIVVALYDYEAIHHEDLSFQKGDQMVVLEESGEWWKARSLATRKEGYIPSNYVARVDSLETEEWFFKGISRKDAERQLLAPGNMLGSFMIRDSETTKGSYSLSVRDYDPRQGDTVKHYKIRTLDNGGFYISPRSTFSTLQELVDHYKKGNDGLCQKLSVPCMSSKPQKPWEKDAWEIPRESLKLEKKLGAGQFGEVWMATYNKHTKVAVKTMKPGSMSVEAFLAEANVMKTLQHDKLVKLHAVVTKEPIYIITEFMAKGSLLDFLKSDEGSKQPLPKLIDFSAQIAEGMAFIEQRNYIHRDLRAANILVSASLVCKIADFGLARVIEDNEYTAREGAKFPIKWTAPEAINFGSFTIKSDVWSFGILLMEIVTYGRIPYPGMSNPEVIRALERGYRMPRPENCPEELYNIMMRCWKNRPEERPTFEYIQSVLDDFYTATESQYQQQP

| IC50 [nM] | Compound |
| --- | --- |
| 16.5 | C[C@@H]1CN([C@H]2CC[C@H](n3nc(-c4ccc(Oc5ccccc5)cc4F)c4c(N)ncnc43)CC2)CCN1 [Example 17, 3-(2-fluoro-4-phenoxyphenyl)-1-((trans)-4-((R)-3-methylpiperazin-1-yl)cyclohexyl)-1H-pyrazolo[3,4-d]pyrimidin-4-amine] |

same assay, conditions: HCK inhibitory activity, 50 μM ATP; read-out: HCK Activity

| IC50 [nM] | Compound |
| --- | --- |
| 50 to 250 | C[C@H]1CN([C@H]2CC[C@@H](n3cc(-c4ccc(NC(=O)Nc5cc(C(C)(C)C)on5)cc4)c4c(N)ncnc43)CC2)CCN1 [Example 130, 1-(4-(4-amino-7-((cis)-4-((S)-3-methylpiperazin-1-yl)cyclohexyl)-7H-pyrrolo[2,3-d]pyrimidin-5-yl)phenyl)-3-(5-(tert-butyl)isoxazol-3-yl)urea] |
| < 50 | C[C@H]1CN([C@H]2CC[C@H](n3cc(-c4ccc(Oc5ccccc5)cc4)c4c(N)ncnc43)CC2)CCN1C [Example 23, 7-((trans)-4-((S)-3,4-dimethylpiperazin-1-yl)cyclohexyl)-5-(4-phenoxyphenyl)-7H-pyrrolo[2,3-d]pyrimidin-4-amine] |
| < 50 | NCC1OCC(N2CCC(n3cc(-c4ccc(Oc5ccccc5)cc4)c4c(N)ncnc43)CC2)CO1 (centres unmarked) [Example 162, 7-(1-(2-(aminomethyl)-1,3-dioxan-5-yl)piperidin-4-yl)-5-(4-phenoxyphenyl)-7H-pyrrolo[2,3-d]pyrimidin-4-amine] |
| < 50 | Nc1ncnc2c1c(-c1ccc(Oc3ccccc3)cc1)cn2C1CCC2(CCNCC2)CC1 [Example 141, 5-(4-phenoxyphenyl)-7-(3-azaspiro[5.5]undecan-9-yl)-7H-pyrrolo[2,3-d]pyrimidin-4-amine] |
| < 50 | Nc1ncnc2c1c(-c1ccc(Oc3ccccc3)cc1)cn2[C@H]1CC[C@H](N2CCC(N)CC2)CC1 [Example 52, 7-((trans)-4-(4-aminopiperidin-1-yl)cyclohexyl)-5-(4-phenoxyphenyl)-7H-pyrrolo[2,3-d]pyrimidin-4-amine] |
| < 50 | COc1cc(-c2nn([C@H]3CC[C@H](N4CCN(C)CC4)CC3)c3ncnc(N)c23)ccc1NC(=O)Nc1cc(C(C)(C)C)on1 [Example 123, 1-(4-(4-amino-1-((trans)-4-(4-methylpiperazin-1-yl)cyclohexyl)-1H-pyrazolo[3,4-d]pyrimidin-3-yl)-2-methoxyphenyl)-3-(5-(tert-butyl)isoxazol-3-yl)urea] |
| < 50 | CN(C)[C@@H]1CCCN([C@H]2CC[C@H](n3cc(-c4ccc(Oc5ccccc5)cc4)c4c(N)ncnc43)CC2)C1 [Example 62, 7-((trans)-4-((R)-3-(dimethylamino)piperidin-1-yl)cyclohexyl)-5-(4-phenoxyphenyl)-7H-pyrrolo[2,3-d]pyrimidin-4-amine] |
| < 50 | NC(=O)C=C1CCC(n2cc(-c3ccc(Oc4ccccc4)cc3)c3c(N)ncnc32)CC1 (centres unmarked) [Example 94, 2-(4-(4-Amino-5-(4-phenoxyphenyl)-7H-pyrrolo[2,3-d]pyrimidin-7-yl)cyclohexylidene)acetamide] |
| < 50 | CN1CCN([C@H]2CC[C@H](n3cc(-c4ccc(Oc5ccccc5F)cc4)c4c(N)ncnc43)CC2)CC1 [Example 108, 5-(4-(2-fluorophenoxy)phenyl)-7-((trans)-4-(4-methylpiperazin-1-yl)cyclohexyl)-7H-pyrrolo[2,3-d]pyrimidin-4-amine] |
| < 50 | CN(C)[C@H]1CN([C@H]2CC[C@H](n3cc(-c4ccc(Oc5ccccc5)cc4)c4c(N)ncnc43)CC2)C[C@H]1O [Example 71, (3R,4S)-1-((trans)-4-(4-amino-5-(4-phenoxyphenyl)-7H-pyrrolo[2,3-d]pyrimidin-7-yl)cyclohexyl)-4-(dimethylamino)pyrrolidin-3-ol] |
| < 50 | CN1CCOC(C2CCC(n3cc(-c4ccc(Oc5ccccc5)cc4)c4c(N)ncnc43)CC2)C1 (centres unmarked) [Example 144, 7-(4-(4-Methylmorpholin-2-yl)cyclohexyl)-5-(4-phenoxyphenyl)-7H-pyrrolo[2,3-d]pyrimidin-4-amine] |
| < 50 | CN1CCN([C@H]2CC[C@H](n3cc(-c4ccc(Oc5ccccc5)cc4)c4c(N)ncnc43)CC2)CC1(C)C [Example 27, 5-(4-phenoxyphenyl)-7-((trans)-4-(3,3,4-trimethylpiperazin-1-yl)cyclohexyl)-7H-pyrrolo[2,3-d] pyrimidin-4-amine] |
| < 50 | COc1cc(-c2cn(C3CCN(C4CCNCC4)CC3)c3ncnc(N)c23)ccc1Oc1ccccc1 [Example 150, 7-([1,4′-bipiperidin]-4-yl)-5-(3-methoxy-4-phenoxyphenyl)-7H-pyrrolo[2,3-d]pyrimidin-4-amine] |
| 250 to 10000 | C[C@@H]1CN([C@H]2CC[C@H](n3cc(-c4ccc(Oc5ccccc5)cc4)c4c(N)ncnc43)CC2)CCN1 [Example 12, 7-((trans)-4-((R)-3-methylpiperazin-1-yl)cyclohexyl)-5-(4-phenoxyphenyl)-7H-pyrrolo[2,3-d]pyrimidin-4-amine] |
| 50 to 250 | CN1CC2(C1)CN([C@H]1CC[C@H](n3cc(-c4ccc(Oc5ccccc5)cc4)c4c(N)ncnc43)CC1)C2 [Example 79, 7-((trans)-4-(6-methyl-2,6-diazaspiro[3.3]heptan-2-yl)cyclohexyl)-5-(4-phenoxyphenyl)-7H-pyrrolo[2,3-d]pyrimidin-4-amine] |
| 250 to 10000 | Nc1ncnc2c1c(-c1ccc(Oc3ccccc3)cc1)cn2[C@H]1CC[C@@H](N2CC(N)C2)CC1 [Example 78, 7-((cis)-4-(3-aminoazetidin-1-yl)cyclohexyl)-5-(4-phenoxyphenyl)-7H-pyrrolo[2,3-d]pyrimidin-4-amine] |

| IC50 [nM] | Compound |
| --- | --- |
| 50 to 250 | COC(=O)C1CC(N2CCC(n3cc(-c4ccc(Oc5ccccc5)cc4)c4c(N)ncnc43)CC2)CCN1 (centres unmarked) [Example 158, methyl 4-(4-amino-5-(4-phenoxyphenyl)-7H-pyrrolo[2,3-d]pyrimidin-7-yl)-[1,4′-bipiperidine]-2′-carboxylate] |
| 50 to 250 | C[C@@H]1CN([C@H]2CC[C@H](n3cc(-c4ccc(Oc5ccccc5)cc4)c4c(N)ncnc43)CC2)C[C@H](C)N1 [Example 25, 7-((trans)-4-((3S,5R)-3,5-dimethylpiperazin-1-yl)cyclohexyl)-5-(4-phenoxyphenyl)-7H-pyrrolo[2,3-d]pyrimidin-4-amine] |
| < 50 | C[C@H]1CN([C@H]2CC[C@@H](n3cc(-c4ccc(Oc5ccccc5)cc4)c4c(N)ncnc43)CC2)CCN1 [Example 20, 7-((cis)-4-((S)-3-methylpiperazin-1-yl)cyclohexyl)-5-(4-phenoxyphenyl)-7H-pyrrolo [2,3-d]pyrimidin-4-amine] |
| < 50 | CN1CCN([C@H]2CC[C@H](n3cc(-c4ccc(Oc5ccccc5)cc4F)c4c(N)ncnc43)CC2)CC1 [Example 105, 5-(2-fluoro-4-phenoxyphenyl)-7-((trans)-4-(4-methylpiperazin-1-yl)cyclohexyl)-7H-pyrrolo[2,3-d]pyrimidin-4-amine] |
| < 50 | CN1CCN([C@H]2CC[C@H](n3cc(-c4ccc(Oc5ccccc5C#N)cc4)c4c(N)ncnc43)CC2)CC1 [Example 112, 2-(4-(4-amino-7-((trans)-4-(4-methylpiperazin-1-yl)cyclohexyl)-7H-pyrrolo[2,3-d]pyrimidin-5-yl)phenoxy)benzonitrile] |
| < 50 | COc1cc(-c2cn([C@H]3CC[C@H](N4CCN[C@@H](C)C4)CC3)c3ncnc(N)c23)ccc1Oc1ccccc1 [Example 134, 5-(3-Methoxy-4-phenoxyphenyl)-7-((trans)-4-((S)-3-methylpiperazin-1-yl)cyclohexyl)-7H-pyrrolo[2,3-d]pyrimidin-4-amine] |
| < 50 | COc1cc(-c2cn(C3CCN(C4CCN(C)CC4)CC3)c3ncnc(N)c23)ccc1Oc1ccccc1 [Example 149, 5-(3-methoxy-4-phenoxyphenyl)-7-(1′-methyl-[1,4′-bipiperidin]-4-yl)-7H-pyrrolo[2,3-d]pyrimidin-4-amine] |
| 50 to 250 | Nc1ncnc2c1c(-c1ccc(Oc3ccccc3)cc1)cn2[C@H]1CC[C@@H](N2CCC(S(N)(=O)=O)CC2)CC1 [Example 70, 1-((cis)-4-(4-amino-5-(4-phenoxyphenyl)-7H-pyrrolo[2,3-d]pyrimidin-7-yl)cyclohexyl)piperidine-4-sulfonamide] |
| < 50 | CN1CCN([C@H]2CC[C@H](c3nc(-c4ccc(Oc5ccccc5)cc4)c4c(N)nccn43)CC2)CC1 [Example 173, 3-((trans)-4-(4-Methylpiperazin-1-yl)cyclohexyl)-1-(4-phenoxyphenyl)imidazo[1,5-a]pyrazin-8-amine] |
| 50 to 250 | Nc1ncnc2c1c(-c1ccc(Oc3ccccc3)cc1)cn2C1CCC(O)(Cn2ccnc2)CC1 (centres unmarked) [Example 101, 1-((1H-Imidazol-1-yl)methyl)-4-(4-amino-5-(4-phenoxyphenyl)-7H-pyrrolo[2,3-d]pyrimidin-7-yl)cyclohexanol] |
| < 50 | C[N+]1(C)CCN([C@H]2CC[C@H](n3nc(-c4ccc(Oc5ccccc5)cc4F)c4c(N)ncnc43)CC2)CC1 [Example 7, 4-((trans)-4-(4-amino-3-(2-fluoro-4-phenoxyphenyl)-1H-pyrazolo[3,4-d]pyrimidin-1-yl)cyclohexyl)-1,1-dimethylpiperazin-1-ium] |
| 50 to 250 | CN1CCN([C@H]2CC[C@H](n3c(Br)c(-c4ccc(Oc5ccccc5)cc4)c4c(N)ncnc43)CC2)CC1 [Example 86, 6-Bromo-7-((trans)-4-(4-methylpiperazin-1-yl)cyclohexyl)-5-(4-phenoxyphenyl)-7H-pyrrolo[2,3-d]pyrimidin-4-amine] |
| < 50 | C[C@@H]1CN([C@H]2CC[C@H](n3nc(-c4ccc(Oc5ccccc5)cc4F)c4c(N)ncnc43)CC2)CCN1 [Example 17, 3-(2-fluoro-4-phenoxyphenyl)-1-((trans)-4-((R)-3-methylpiperazin-1-yl)cyclohexyl)-1H-pyrazolo[3,4-d]pyrimidin-4-amine] |
| < 50 | CC(C)N1CCC(N2CCC(n3nc(-c4ccc(Oc5ccccc5)cc4F)c4c(N)ncnc43)CC2)CC1 [Example 153, 3-(2-fluoro-4-phenoxyphenyl)-1-(1′-isopropyl-[1,4′-bipiperidin]-4-yl)-1H-pyrazolo[3,4-d]pyrimidin-4-amine] |
| 50 to 250 | Nc1ncnc2c1c(-c1ccc(Oc3ccccc3)cc1)cn2[C@H]1CC[C@@H](N2CCS(=O)(=O)CC2)CC1 [Example 66, 4-((cis)-4-(4-amino-5-(4-phenoxyphenyl)-7H-pyrrolo[2,3-d]pyrimidin-7-yl)cyclohexyl)thiomorpholine 1,1-dioxide] |
